Measurements published in US8058258B2, “Methods for cancer therapy and stem cell modulation” (Agency for Science, Technology and Research, priority 2006, dated 2011).

Legend:
[1] = test system: trimethylation of histone 3 at lysine 27 (H3-K27); experiment: Western blot of histone H3 lysine 27 trimethylation; assay type: cell-based, human; conditions: HCT116 or MCF-7 cells, 5 μM, 48 and 72 hours
Description: Cell lines used in these examples were purchased from the American Type Culture Collection (Manassas, Va.). Cells were maintained in DMEM supplemented with 10% fetal bovine serum with glutamine, penicillin, and streptomycin. For drug treatment, cells were seeded the day before the drug treatment. Cells were treated with 5 μM 3-Deazaneplanocin A or 2 μM 5-aza-2'-deoxycytidine (5-AzaC; Sigma) for 72 hours and trichostatin A (TSA; Sigma) at 100 nM for 24 hours. For co-treatment of cells with 5-AzaC and TSA, 5-Aza was added for 48 hours and followed by TSA for 24 hours. Cell pellets were first lysed in RadioImmuno Precipitation Assay (RIPA) buffer, consisting of an aqueous solution of 25 mM Tris-HCl pH 7.6, 150 mM NaCl, 1% Nonidet-P 40 (NP-40), 1% sodium deoxycholate and 0.1% sodium dodecylsulfate (SDS), before further sonicated using a tissue homogeniser to release all the proteins. Equal amounts of protein were separated on SDS-polyacrylamide gels and transferred to polyvinylidene difluoride (PVDF) membranes. The blots were probed with antibodies against: EED (07-368), SUZ12 (07-379), SUV39H1 (07-550), BMI1 (05-637), tri-methylated H3-K27 (07-449), tri-methylated H3-K9 (07-442) and Acetyl-Histone H3 (06-599), and were purchased from Upstate. EZH2 (AC22) and Histone H3 (3H1) were from Cell Signaling. […]

[2] = test system: PRC2 target genes in MCF-7, MB-468, SK-BR-3, T47D, MCF10A, MB-231, BT549; experiment: Array analysis of PRC2 targets in sensitive and resistant breast cancer cell lines; assay type: cell-based
Description: FIG. 6B depicts the results of array analysis in these breast cancer cell lines (MCF-7, MB-468, SK-BR-3 and T47D sensitive ? MCF10A, MB-231, BT549 resistant) before and after 3-deazaneplanocin treatment. […] Genes marked in bold are highly expressed in resistant cell lines relative to sensitive cell lines.
Total RNA was isolated from cell lines using Trizol (Invitrogen) and was converted to cDNA using an RNA Amplification kit (Ambion). The microarray hybridisation was performed using the Illumina Gene Expression BeadChip (Illumina) and data analysis was performed using GeneSpring software from Agilent Technologies. Gene expression of normal and primary breast tumor samples was performed using Affymetrix U133A GeneChips (Affymetrix, Santa Clara, Calif.) following the manufacturer's instructions. Gene expression data from individual arrays were normalized by median centering and average linkage hierarchical clustering was done using Cluster and Treeview softwares (http://rana.lbl.gov/EisenSoftware.htm). Quantitative real-time PCR was performed on a PRISM 7900 sequenced detector (Applied Biosystems) using TaqMan probes (Applied Biosystems). Samples were normalized to the levels of 18S ribosomal RNA.
To extend the observation seen in MCF-7 cells, additional breast cancer cell lines were screened, including MB-468, SK-BR-3, MB-231, T47D and BT549. […] To identify the PRC2 target genes associated with the cellular sensitivity to 3-deazaneplanocin, the array analysis was performed in these breast cancer cell lines before and after 3-deazaneplanocin treatment and the expression of the 47 identified PRC2 targets profiled. It was reasoned that some the PRC2 target genes might be differentially expressed between the sensitive and resistant cell lines, which might confer the distinct sensitivity to 3-deazaneplanocin. […] Both the real time and conventional RT-PCR analysis of the 4 gene set confirmed the array data (FIGS. 6D & 6E). […]

[3] = test system: MB-468 cells; experiment: Cell death / apoptosis by PI staining and flow cytometry; assay type: cell-based, human
Description: (§1) FIG. 3A depicts the detection of cell death of a variety of cancer cells upon exposure to 3-deazaneplanocin (DZNep) compared to untreated controls cells (DMSO=dimethyl sulfoxide). Breast cancer MCF-7 and MB-468 cells, colorectal HCT116, RKO and SW480 cells were treated with 5 μm 3-deazaneplanocin for 48 and 72 h, and cell death was detected by means of propodium iodide (PI) staining and flow cytometry analysis. Shown is the average of three independent experiments.
(§2) FIG. 6A depicts an analysis of the breast cancer cell lines MCF-7, MB-468, SK-BR-3, MB-231, T47D and BT549 for an apoptotic effect of 5 μM 3-deazaneplanocin over a time frame of 120 hours. Cell death was measured by FACS analysis. Data presented are the average of three independent experiments.
Cell lines used in these examples were purchased from the American Type Culture Collection (Manassas, Va.). Cells were maintained in DMEM supplemented with 10% fetal bovine serum with glutamine, penicillin, and streptomycin. For drug treatment, cells were seeded the day before the drug treatment. […]
It was observed that 3-deazaneplanocin at 5 μM could induce 25% cell death at 48 hours and 45% of cell death at 72 hours, as determined by propodium iodide (PI) staining and flow cytometry analysis (FIG. 3A). […]

[4] = test system: MCF10A cells; experiment: Apoptosis by FACS analysis in non-cancerous cells; assay type: cell-based; conditions: 5 μM
Description: Cells were treated with 5 μM 3-deazaneplanocin (DZNep, dark bars) for indicated times.
as §2
(§3) Cells were trypsinised and washed with PBS and fixed in 70% ethanol and processed for propidium iodide staining and FACS analysis. For the caspase 3 activity assay and mitochondrial membrane potential detection, cells were stained with anti-active caspase 3 and JC-1, respectively, according to the manufacturer's instructions (BD Bioscience).
To determine whether 3-deazaneplanocin preferentially induces apoptosis in cancer cells, the apoptosis induction between MCF-7 cells and the non-cancerous breast epithelial MCF10A cells was compared for various periods of time. […] In addition, normal primary colon epithelial CC33D cells, like MCF10A cells, were also resistant to 3-deazaneplanocin treatment compared to colorectal cancer HCT116 cell, as evaluated by microscopy examination (FIGS. 3G & 3H).
To extend the observation seen in MCF-7 cells, additional breast cancer cell lines were screened, including MB-468, SK-BR-3, MB-231, T47D and BT549. […]

[5] = test system: HCT116 cells; experiment: Cell death by PI staining and flow cytometry; assay type: cell-based; conditions: colorectal cancer HCT116 cells, 5 μM
Description: as §1
(§4) Cell lines used in these examples were purchased from the American Type Culture Collection (Manassas, Va.). Cells were maintained in DMEM supplemented with 10% fetal bovine serum with glutamine, penicillin, and streptomycin. For drug treatment, cells were seeded the day before the drug treatment. Cells were treated with 5 μM 3-Deazaneplanocin A or 2 μM 5-aza-2′-deoxycytidine (5-AzaC; Sigma) for 72 hours and trichostatin A (TSA; Sigma) at 100 nM for 24 hours. For co-treatment of cells with 5-AzaC and TSA, 5-Aza was added for 48 hours and followed by TSA for 24 hours.
as §3
(§5) It was observed that 3-deazaneplanocin at 5 μM could induce 25% cell death at 48 hours and 45% of cell death at 72 hours, as determined by propodium iodide (PI) staining and flow cytometry analysis (FIG. 3A).

[6] = test system: SW480 cells; experiment: Cell death by PI staining and flow cytometry; assay type: cell-based; conditions: colorectal cancer SW480 cells, 5 μM
Description: as §1, §4, §3, §5

[7] = test system: RKO cells; experiment: Cell death by PI staining and flow cytometry; assay type: cell-based; conditions: colorectal cancer RKO cells, 5 μM
Description: as §1, §4, §3, §5

Nc1nccc2c1ncn2C1C=C(CO)C(O)C1O (centres unmarked) [3-deazaneplanocin, 5-(4-amino-1H-imidazo[4,5-c]pyridin-1-yl)-3-(hydroxymethyl)-3-cyclopentene-1,2-diol]
trimethylation of histone 3 at lysine 27 (H3-K27) [1]: strongly reduced | induction of FBXO32, LAMB3, PLAU, and PPP1R15A ([2]; four sensitive cell lines (MCF-7, MB-468, SK-BR-3, T47D)): commonly induced | induction of the same PRC2 target genes in resistant cell lines ([2]; resistant cell lines (MCF10A, MB-231, BT549)): did not undergo marked further induction | induction of TGFBI, IGFBP3, TNS3 and KRT17 ([2]; sensitive cell lines (MCF-7, MB-468, SK-BR-3, T47D)): induced in 3 out 4 sensitive cell lines | sensitivity to 3-deazaneplanocin-induced cell death ([3]; MB-468, 5 μM, time course to 120 hours): highly susceptible | cell death ([3]; breast cancer MB-468 cells, 5 μM): obvious cell death | sensitivity to 3-deazaneplanocin-induced cell death ([4]; MCF10A, time course to 120 hours): highly resistant | apoptosis induction ([4]; non-cancerous breast epithelial MCF10A cells, up to 96 hours): no obvious apoptosis | cell death [5]: obvious cell death | cell death [6]: obvious cell death | cell death [7]: obvious cell death
